According to ChEMBL document CHEMBL3044538, “QSAR Analysis of BABQ compounds via calculated molecular descriptors” (Med Chem Res, 2006):

Columns and labels:
L1210 [1] = experiment: Cytotoxicity against Mus musculus (mouse) L1210 cells; type: functional
B16 = experiment: Antitumor activity against Mus musculus (mouse) B16 cells xenografted in rat; type: functional
L1210 [2] = experiment: Antitumor activity against Mus musculus (mouse) L1210 cells xenografted in rat; type: functional
Rattus norvegicus = species: Rattus norvegicus; experiment: Toxicity in Rattus norvegicus (rat); type: organism-based; conditions: in vivo

| Compound | log(1/MIC) (L1210 [1]) | log(1/MIC) (B16) | log(1/MIC) (L1210 [2]) | log(1/LD50) (Rattus norvegicus) |
| --- | --- | --- | --- | --- |
| O=C1C(Br)=C(N2CC2)C(=O)C(Br)=C1N1CC1 | 0.35 |  |  |  |
| O=C1C(NCCO)=C(N2CC2)C(=O)C(NCCO)=C1N1CC1 | 0.42 | 3.94 | 3.39 |  |
| CC1=C(C)C(=O)C(N2CCCC2)=CC1=O | -1.7 |  |  |  |
| COC1=C(C)C(=O)C(N2CCCC2)=CC1=O | -1.6 |  |  |  |
| CC1CN1C1=CC(=O)C(N2CC2C)=C(F)C1=O (centres undefined) | 1.49 |  |  | 1.5 |
| COC1=C(N2CC2C)C(=O)C=C(N2CC2C)C1=O (centres undefined) | -0.5 | 2.27 | 1.47 | 1.4 |
| CC1CN1C1=C(N2CCCC2)C(=O)C(N2CC2C)=C(N2CCCC2)C1=O (centres undefined) | -1.1 |  |  |  |
| CC1CN1C1=CC(=O)C(N2CC2C)=CC1=O (centres undefined) |  |  |  | 1.16 |
| O=C1C=C(N2CC2)C(=O)C(N2CC2)=C1N1CC1 [TRIAZIQUONE] |  | 3.8 |  | 2.66 |
| O=C1C=C(N2CCCC2)C(=O)C=C1N1CCCC1 | -1.6 |  |  |  |
| CN(CCO)C1=C(N2CC2)C(=O)C(N(C)CCO)=C(N2CC2)C1=O | 0.09 |  |  |  |
| CCOC(=O)NC1=C(N2CC2)C(=O)C(NC(=O)OCC)=C(N2CC2)C1=O [DIAZIQUONE] | -0.5 |  |  | 1.54 |
| CC1=C(N2CC2C)C(=O)C(CCOC(N)=O)=C(N2CC2C)C1=O (centres undefined) | -0.1 |  |  |  |
| CC1=C(N2CC2)C(=O)C(CCOC(N)=O)=C(N2CC2)C1=O |  |  |  | 1.99 |
| CC1CN1C1=C(Br)C(=O)C(N2CC2C)=C(Br)C1=O (centres undefined) | 0.77 |  |  |  |
| O=C1C(N2CC2)=C(N2CC2)C(=O)C(N2CC2)=C1N1CC1 | 0.9 |  |  |  |
| CC1CN1C1=C(Cl)C(=O)C(N2CC2C)=C(Cl)C1=O (centres undefined) | -0.6 |  | 1.16 |  |
| CC1=C(N2CC2)C(=O)C(Br)=C(N2CC2)C1=O |  |  |  | 1.44 |
| CC1=C(N2CC2)C(=O)C(CCO)=C(N2CC2)C1=O |  | 3.6 |  | 1.39 |

| Compound | log(1/MIC) (L1210 [1]) | log(1/MIC) (B16) | log(1/MIC) (L1210 [2]) | log(1/LD50) (Rattus norvegicus) |
| --- | --- | --- | --- | --- |
| CCC1=C(N2CC2)C(=O)C(C)=C(N2CC2)C1=O | -0.3 |  |  | 1.46 |
| O=C1C(N2CCCC2)=C(N2CC2)C(=O)C(N2CCCC2)=C1N1CC1 | -0.3 | 2.4 |  |  |
| O=C1C=C(N2CC2)C(=O)C=C1N1CC1 |  |  |  | 1.8 |
| COC1=C(N2CC2)C(=O)C(OC)=C(N2CC2)C1=O | 0.15 |  |  |  |
| O=C1C=C(N2CC=CC2)C(=O)C=C1N1CC=CC1 | -1.6 |  |  |  |
| CCOC(=O)NC1=CC(=O)C(NC(=O)OCC)=CC1=O | 0.09 |  |  |  |
| O=C1C(F)=C(N2CC2)C(=O)C(N2CC2)=C1N1CC1 |  |  |  | 1.62 |
| O=C1C(Cl)=C(N2CC2)C(=O)C(Cl)=C1N1CC1 | -0.3 |  |  |  |
| O=C1C(F)=C(N2CC2)C(=O)C(F)=C1N1CC1 | -0.2 |  |  |  |
| NC(=O)OCCC1=C(N2CC2)C(=O)C(Br)=C(N2CC2)C1=O |  |  | 2 | 1.05 |
| CCC1=C(N2CC2)C(=O)C(Br)=C(N2CC2)C1=O |  | 2.6 |  | 1.39 |
| CNC1=C(N2CC2C)C(=O)C(NC)=C(N2CC2C)C1=O (centres undefined) | -0.3 | 2.33 | 2.19 |  |
| COC(COC(N)=O)C1=C(N2CC2)C(=O)C(C)=C(N2CC2)C1=O (centres undefined) [CARBOQUONE] |  |  |  | 1.73 |
| CC1CN1C1=C(F)C(=O)C(N2CC2C)=C(N2CC2C)C1=O (centres undefined) |  |  |  | 1.45 |
| CC1=C(N2C(C)C2C)C(=O)C(Br)=C(N2C(C)C2C)C1=O (centres undefined) | -0.1 |  | 0.69 | 0.63 |
| CNC1=C(N2CC2)C(=O)C(NC)=C(N2CC2)C1=O | 0.32 | 3.14 | 2.49 |  |
| CC1=C(C)C(=O)C(N2CC=CC2)=CC1=O | -0.7 |  |  |  |
| CCOC(=O)NC1=C(N2CC2C)C(=O)C(NC(=O)OCC)=C(N2CC2C)C1=O (centres undefined) | -1 |  |  | 0.69 |
| CC1=C(N2CC2C)C(=O)C(Br)=C(N2CC2C)C1=O (centres undefined) |  |  |  | 1.59 |
